Test results published in the NIST ThermoML archive (doi:10.1016/j.jct.2017.11.007).

Experiment: mn = molality of the nth substance listed, in mol/kg
Conditions: 74.66 kPa, Liquid; for mass density: Vibrating tube method; for speed of sound: Frequency=3 MHz, Single path-length method

Cc1ccnc([N-]S(=O)(=O)c2ccc(N)cc2)n1.[Na+] + O
Conditions	mass density, 293.15 K [kg/m3]	mass density, 298.15 K [kg/m3]	mass density, 303.15 K [kg/m3]	mass density, 308.15 K [kg/m3]	speed of sound, 298.15 K [m/s]	speed of sound, 303.15 K [m/s]	speed of sound, 308.15 K [m/s]
m1 = 0.005	998.778	997.615	996.212	994.593	1497.8	1510	1520.6
m1 = 0.008	999.118	997.95	996.544	994.922	1498.2	1510.5	1521.1
m1 = 0.01	999.342	998.172	996.764	995.14	1498.5	1510.8	1521.4
m1 = 0.01486	999.886	998.708	997.296	995.663	1499.3	1511.6	1522.1
m1 = 0.02002	1000.47	999.286	997.863	996.227	1500	1512.3	1522.8
m1 = 0.025	1001.03	999.841	998.416	996.774	1500.9	1513.1	1523.5
m1 = 0.03001	1001.59	1000.39	998.961	997.316	1501.7	1513.8	1524.2
m1 = 0.035	1002.15	1000.95	999.509	997.858	1502.5	1514.6	1524.9
m1 = 0.04002	1002.71	1001.5	1000.06	998.402	1503.3	1515.3	1525.7
m1 = 0.04499	1003.27	1002.05	1000.61	998.941	1504.1	1516.1	1526.3
m1 = 0.05	1003.84	1002.61	1001.16	999.494	1504.8	1516.8	1527.1
m1 = 0.05501	1004.4	1003.17	1001.71	1000.03	1505.7	1517.6	1527.8
m1 = 0.05998	1004.96	1003.73	1002.26	1000.58	1506.5	1518.3	1528.4
